In patent US20050142229A1, “Pharmaceutical activity and manufacturing method of the four-plant-derived coronary blood flow enhancing agent” (priority 2003, published 2005):

System: isolated guinea pig heart
Assay: Effect on coronary blood flow of the isolated guinea pig heart (perfusion with KH solution)
Protocol: 1. Effect on coronary blood flow of the isolated guinea pig heart. • (1) The perfusion circuit was maintained at 37±1° C. and the perfusate in the condensing tube was thermostatic. The upper end of the condensing tube was connected with reservoir and the lower with aortic cannula via rubber tube. The perfusate level in reservoir A was constant by controlling the height of liquid below the air inlet in reservoir B. The perfusate level was about 50 cm above the aortic root. Constant oxygen was gassed into reservoir A to make the KH solution saturated with oxygen. When full of the oxygenated LH solution, the perfusion tube was clamped. • (2) On […], weighing 300 g, was stunned and exsanguinated via carotid. The chest and pericardium were opened, and then the heart was suspended in the pericardial cradle. The heart was exercised and immediately put into the cold KH solution (4° C.). The remaining blood was pressed out gently. After aortic cannulation at the top of the ascending aorta, the clamp was opened and the coronary venous effluent was present (route: coronary artery→myocardium→right atrium→vena cava and pulmonary artery). The pressure transducer was connected with the apex of heart to record the graphs and count the heart beat. The coronary venous effluent dripped into the measuring cup via a funnel. • (3) Coronary Blood Flow Measurement: The heart was allowed to recover for 10 minutes to stabilize coronary blood flow, heart rate, and heart beat amplitude. The per-minute flow volume was measured consecutively for 3 minutes. If the values were similar, the average was calculated for the normal coronary blood flow. […] The test sample and isoprenaline was injected into the aortic cannula respectively. The per-minute coronary blood flow, heart rate and heart beat duration were measured during 1˜10 min after administration, the maximum and minimum were picked out to caculate the extreme difference. Note: the second administration should not be given until the coronary blood flow returned to normal. Five replicate experiments were conducted to ensure the reproductivity.

[1] = isolated heart, 0.25 μg injected into aortic cannula, X ± SD

SMILES: CC(C)NCC(O)c1ccc(O)c(O)c1 (stereo not drawn) [Isoprenaline]
- coronary blood flow (result in words) (isolated guinea pig heart): increased
- heart rate (result in words) (isolated guinea pig heart): increased
- myocardial contraction (result in words) (isolated guinea pig heart): increased
- Coronary Blood Flow, After administration [1]: 20 ± 4 mL/min
- Heart Rate, After administration [1]: 198 ± 21 time/min
- Heart beat duration, After administration [1]: 62 ± 10 min
